# Test results from US5369111A, “Modulator agent and use thereof” (University of Vermont, priority 1992, dated 1994).
# “Also recorded” adds a separate entry of the source. Where two headings read alike, the source gives them in different places.
# Experiments:
# RCC-2 and RCC-5 cells = test: Modulation of intrinsic drug resistance, RCC-2 and RCC-5; assay type: cell-based, rat; conditions: at the non-toxic concentration limit of 1-2 μM
# Experimental: (§1) Mid-exponential cultures were used for all assays. The RCC-2 and RCC-5 cell lines were seeded into 24-well plates at 2×10^4 cells/well and allowed to attach to the substratum for 16-18 h prior to treatment. The S180 cell lines were seeded into culture tubes at 1×10^5 cells/ml and treated immediately. Cytotoxicity was determined by quantitation of population growth after 72 h incubation by electronic particle counter (Coulter Electronics, Hialeah, Fla.). The human tumor cell lines were used in a clonogenic assay for cytotoxicity. Cells were seeded at 300 cells/dish, incubated overnight and then treated. Colonies were scored 7-11 days later. In all assays of analog modulation of drug sensitivity, the analog was added minutes prior to the addition of cytotoxic drug.
# [1] = tested on: S180 MDR cell strains A3 and A10; test: Modulation of acquired drug resistance in the S180 MDR cell strains A3 and A10; assay type: cell-based, murine; conditions: A3 and A10
# Experimental: as §1
# (§2) To evaluate the ability of vindoline and the two diastereoisomeric VBL analogs to modulate the MDR phenotype (acquired resistance) of the A3 and A10 cell stains, we determined the concentration of compound required to restore drug sensitivities to parental levels. This was done by exposing the MDR cell line to a concentration range of modulator in the presence VBL, VCR and ADM at the respective IC70s of the parental cell line. The cytotoxicity curves for A3 and A10 cells, shown in FIG. 5, are distinctive among the three vinca alkaloids examined. In each cell line, there was a minimum concentration of modulator that elicited 70% growth inhibition for each drug - i.e. the reversing concentration.
# FIG. 5 represents the modulation of multidrug resistance in the MDR cell strains by the vinca alkaloids. Vindoline (A), vincovaline (B), or the analog C-20'-deoxy vincovaline (C) was added, at various concentrations, to A3 (closed symbols) or A10 (opened symbols) cell cultures containing the parental IC70 of each drug: 2.0×10^-7 M. ADM (circles: 1.5×10^-8 M VBL (triangles); and 4.5×10^-8 M; VCR (squares). Population growth was determined 72 hours later.
# FIG. 6 represents the relationship between cellular drug resistance level and the minimal modulator concentration required for complete reversal of drug resistance. The drugs examined were ADM (o), VBL (Δ), and VCR (.quadrature.). The amount (concentration) of modulator, necessary to reverse each level of drug resistance contained in the A3 and A10 cell lines, was determined from data such as those of FIG. 5. The values presented were averaged from duplicate samples of two separate experiments, S.D.<15% of the mean. The arrows denote the non-toxic concentration limit for the modulator; in the case of Vincovaline this value is dependent on the MDR cell strain, 2×10^-5 M, A3; 5×10^-5 M. A10.
# FIG. 11 represents the modulation of multidrug resistance in the S180 MDR cell strains A3 and A10. The cellular drug resistance level is plotted against the minimal concentration of C-20'-deoxy deethyl vincovaline required for the complete reversal of drug resistance to ADM (o), VBL (Δ), and VCR (.quadrature.). In the case of high level ADM resistance […], the sensitivity of the cells was restored to 80% of the parental value. The arrow denotes the non-toxic concentration limit of the analog.
# S180 cells, parental = test: Modulation of intrinsic drug resistance, parental S180; assay type: cell-based, murine; conditions: for effect on VBL toxicity in parental S180 cells (in words): 50-fold concentration range; for modulation of sensitivity of parental S180 cells to VBL, VCR and ADM (in words): all three drugs
# Experimental: as §1
# The ability of the compounds to modulate drug sensitivity in parental cells was studied over a range of concentrations of each compound, from 10^-6 M to the non-toxic (IC10-20) or solubility limit. […] From such experiments, we determined a sensitivity index derived from the IC50 of the drug without modulator treatment divided by the drug IC50 at each concentration of modulator.
# When the sensitivity index for each drug, VBL, VCR and ADM is plotted versus the modulator concentration (FIG. 4), we can compare the relative potencies of the compounds as modulators of drug toxicity to the parental S180 cells.
# *calculated as the IC50 of the drug alone divided by the IC50 o
# the [drug modulator] combination. Data are presented from tretments with
# FIG. 4 represents the potency of the vinca alkaloid compounds as modulators of drug sensitivity in S180 cells. The enhancement of sensitivity was calculated as the sensitivity index=IC50 of the drug alone divided by the IC50 of the drug+modulator. The IC50s for ADM (o) VBL (Δ), or VCR (.quadrature.) were determined over a concentration range of each modulator from data such as those depicted in FIG. 3. The values presented were averaged from duplicate samples of two separate experiments, S.D. <15% of the mean.
# [2] = Inhibition of population growth of rat colon cancer cell lines RCC-2 and RCC-5; assay type: cell-based; conditions: rat, rcc-2 and rcc-5 cells; read-out: non-toxic concentration limit
# Text: The analogs were examined in a panel of tumor cell lines of both intrinsic and acquired drug resistance, as described in Table 1. The rat colon adenocarcinoma cell lines RCC-2 and RCC-5 (ref. 13) were maintained in Ham's F12 medium supplemented with 5% heat-inactivated, fetal bovine serum (Sterile Systems. Hyclone, Logan, Utah). The two rat colon cancer cell lines differ in their degree of cellular differentiation; whereas the RCC-2 cell line is undifferentiated, the RCC-5 cell line is highly mucinous. The human epidermoid carcinoma cell line KB-3-1 and its MDR variant KB-Vl, selected by VBL treatment (ref. 14; courtesy of M. Gottesman. National Cancer Institute), was maintained in DMEM medium supplemented with 10%, heat-inactivated, fetal bovine serum. […]
# Mid-exponential cultures were used for all assays. […] Cytotoxicity was determined by quantitation of population growth after 72 h incubation by electronic particle counter (Coulter Electronics, Hialeah, Fla.). […] Colonies were scored 7-11 days later. […]
# FIG. 7 represents the toxicity of analog C-20'-deoxy vincovaline (A) and C-20'-deoxy deethyl vincovaline (B) to population growth of the rat colon adenocarcinoma cell lines. The congener was added at various concentrations to RCC-2 (.cndot.) and RCC-5 (Δ) cell cultures and the population cell number was determined 72 hours later. […]
# [3] = tested on: S180 cell system (S180, A3, A10); test: Inherent cytotoxicity in the S180 cell system (S180, A3, A10); assay type: cell-based, murine; conditions: for IC50: Mus musculus; for inherent cytotoxicity / resistance profile (in words): S180, A3, A10
# Text: (§3) The analogs were examined in a panel of tumor cell lines of both intrinsic and acquired drug resistance, as described in Table 1. The rat colon adenocarcinoma cell lines RCC-2 and RCC-5 (ref. 13) were maintained in Ham's F12 medium supplemented with 5% heat-inactivated, fetal bovine serum (Sterile Systems. Hyclone, Logan, Utah). The two rat colon cancer cell lines differ in their degree of cellular differentiation; whereas the RCC-2 cell line is undifferentiated, the RCC-5 cell line is highly mucinous. The human epidermoid carcinoma cell line KB-3-1 and its MDR variant KB-Vl, selected by VBL treatment (ref. 14; courtesy of M. Gottesman. National Cancer Institute), was maintained in DMEM medium supplemented with 10%, heat-inactivated, fetal bovine serum. The murine sarcoma cell line […] and its MDR strains A3 and A10 selected by ADM treatment (ref. 15; courtesy of T. Tritton, Dept. Pharmacology, Univ. Vermont). were maintained in DMEM medium supplemented with 10% heat-inactivated, horse serum (Hazelton Biolog. Lenexa, Kans.). Stock cultures were subcultured twice weekly upon reaching the late exponential phase of population growth: population doubling times were 18-24 h. Antibiotics were not used in stock or experimental cultures. The MDR cell strains were grown in drug-free media for 48 h prior to experimental use.
# as §1
# FIG. 2 represents the toxicity of the vinca alkaloid compounds to population growth. Vindoline, vincovaline or the analog, C-20'-deoxy vincovaline was added, at various concentrations, to S180 (.cndot.), A3 (o), or A10 (Δ) cell cultures. The population cell number was determined 72 hours later.
# S180/A10 cells = test: Modulator potency in MDR cells: reversal of acquired resistance, S180/A10; assay type: cell-based, murine; conditions: A10 cells, 90 fold ADM resistance
# Experimental: as §1, §2
# *The minimal concentration of modulator required to restore the drug
# sensitivity of S180/MDR cell strains to that of parental S180 cells. Data
# are the averages of 2-3 separate experiments, S.D. ≤20%.
# [4] = Inhibition of population growth (cytotoxicity), MDR strain S180/A10; assay type: cell-based, mouse; conditions: mouse, s180/a10 cells; read-out: non-toxic concentration limit for the modulator
# Text: as §3, §1
# [5] = Inhibition of population growth (cytotoxicity), MDR strain S180/A3; assay type: cell-based, mouse; conditions: mouse, s180/a3 cells; read-out: non-toxic concentration limit for the modulator
# Text: as §3, §1
# [6] = listed as C-20'-deoxy Vincovaline
SMILES,"sensitization to VBL, VCR and ADM (RCC-2 and RCC-5 cells)","modulation of cellular resistance to VBL, VCR and ADM in MDR cell strains (in words) [1]","modulation of cellular resistance to VBL, VCR and ADM in MDR cell strains (in words) ([1]; 16', 20'-epi-VBL)","effect on VBL toxicity in parental S180 cells (in words) (S180 cells, parental)","effect on VBL toxicity in parental S180 cells (in words) (S180 cells, parental; [6])","modulation of VCR and ADM cytotoxicity in parental S180 cells (in words) (S180 cells, parental)","modulation of VCR and ADM cytotoxicity in parental S180 cells (in words) (S180 cells, parental; [6])","modulation of VCR and ADM cytotoxicity in parental S180 cells (in words) (S180 cells, parental; listed as C-29'-deoxy vincovaline)",MNTC at 72 h [2] [nM],"IC50 ([3]; S-180, read-out: IC50 (inhibition of cell growth)) [µM]",inherent cytotoxicity / resistance profile (in words) [3],"inherent cytotoxicity / resistance profile (in words) ([3]; 16', 20'-epi-VBL)",non-toxic concentration limit (in words) ([3]; S180 cell system),reversal of high level ADM resistance (in words) (S180/A10 cells),MNTC at 72 h [4] [µM],"modulation of cellular resistance to VBL, VCR and ADM in MDR cell strains (in words) ([1]; listed as C-14', 16', 20'-epi-VBL)",MNTC at 72 h [5] [µM],"modulation of sensitivity of parental S180 cells to VBL, VCR and ADM (in words) (S180 cells, parental)","modulation of sensitivity of parental S180 cells to VBL, VCR and ADM (in words) (S180 cells, parental; listed as Vincovaline)","IC50 ([3]; S-180, S180 parental and MDR cell lines, read-out: IC50 (inhibition of cell growth)) [µM]"
"CC[C@H]1C[C@H]2CN(CCc3c([nH]c4ccccc34)[C@](C(=O)OC)(c3cc4c(cc3OC)N(C)[C@H]3[C@@](O)(C(=O)OC)[C@H](OC(C)=O)[C@]5(CC)C=CCN6CC[C@]43[C@@H]65)C2)C1 [C-20'-deoxy vincovaline, C-20'-deoxy C-14', 16', 20'-epi-VBL]",2- to 4 fold,"reverses MDR in the A3 and A10 cell strains, without evidence of drug-specificity","modulators of cellular resistance to VBL, VCR and ADM",no effect on cell sensitivity to VBL,no effect on VBL toxicity,"progressive sensitization of the cells to the drug with increasing analog concentrations; also recorded: similar, concentration-dependent enhancement of VCR and ADM cytotoxicity; also recorded: sensitizes S180 cells to ADM and VCR but not to VBL","similar, concentration-dependent enhancement",most potent modulator of intrinsic resistance to ADM and VCR,1000 to 2000,> 10,very weak cytotoxic agent,cross-resistance,beyond the limits of solubility,reversing completely the high level ADM resistance (90 fold),–,–,–,–,–,–
"CC[C@@]1(O)C[C@H]2CN(CCc3c([nH]c4ccccc34)[C@](C(=O)OC)(c3cc4c(cc3OC)N(C)[C@H]3[C@@](O)(C(=O)OC)[C@H](OC(C)=O)[C@]5(CC)C=CCN6CC[C@]43[C@@H]65)C2)C1 [vincovaline, C-14', 16', 20'-epi-VBL]",–,significant activity with MDR cells is coincident with its non-toxic concentration limit in each cell line,–,–,–,–,–,–,–,–,cross-resistance,–,–,limited in this activity by their own cytoxicity in the MDR cell lines,50,"modulators of cellular resistance to VBL, VCR and ADM",20,sensitized the parental S180 cells to all three drugs,weak modulator of drug sensitivity; also recorded: poor modulator of drug sensitivity in the parental cell line,> 10
